The record followed here is PubChem BioAssay (NCI).

Some test systems named below: HOP-62 NSCLC; SN12C renal; MOLT-4 leukemia; SF-268 CNS; HT29 colon; OVCAR-3 ovarian; MCF7 breast; RPMI-8226 leukemia; MALME-3M melanoma; SR leukemia.
Common to all, as to test: NCI anticancer screen, dose series, 48 h

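Exposure lasted 48 hours, with cells grown in 96-well plates and compounds tested at five concentrations. At the GI50, growth is halved. Definition used: TGI = concentration required for complete inhibition of growth.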

For the compound `O=C(N/N=C/c1coc2ccc(Cl)cc2c1=O)c1cc(O)c(O)c(O)c1`, the GI50 with HOP-62 NSCLC was 38.8 µM; with SN12C renal, 24.1 µM; in the test on MOLT-4 leukemia, 13.7 µM; in the test with SF-268 CNS, above 100 µM; in the test with HT29 colon, 63.8 µM; in the test with OVCAR-3 ovarian it was 40.4 µM. Besides, the GI50 was 75.7 µM in the test on MCF7 breast and 28.5 µM in the test on RPMI-8226 leukemia. Besides, the TGI in the test on HOP-62 NSCLC is 89.4 µM; in the test on SN12C renal it was 65.4 µM; with MOLT-4 leukemia, 61.6 µM; in the test with SF-268 CNS, above 100 µM; in the test on HT29 colon it was above 100 µM; in the test on OVCAR-3 ovarian, above 100 µM. The TGI with MCF7 breast and in the test on RPMI-8226 leukemia was above 100 µM throughout.

As for `C=CCC(NCc1ccccc1)c1cn(C(=O)OCC)c2ccccc12` (stereo not drawn), the GI50 is 24.6 µM in the test with HOP-62 NSCLC; 25.7 µM with SN12C renal; 10 µM in the test with MOLT-4 leukemia; above 100 µM in the test with SF-268 CNS; 29.6 µM with HT29 colon; 17.3 µM with OVCAR-3 ovarian. For the same compound, the GI50 with MCF7 breast was 51.8 µM; in the test with RPMI-8226 leukemia, 13.1 µM. For the same compound, the TGI was 64.6 µM with HOP-62 NSCLC; 60.9 µM in the test with SN12C renal; 38.1 µM in the test with MOLT-4 leukemia; above 100 µM in the test on SF-268 CNS; above 100 µM with HT29 colon; 33.7 µM with OVCAR-3 ovarian. The values for the TGI in the test with MCF7 breast and in the test with RPMI-8226 leukemia were above 100 µM and 35.8 µM, respectively.

As for `Cc1nc2ccccc2c(/C=C/c2ccc(F)cc2)c1C(=O)/C=C/c1ccccc1`, the GI50 in the test with HOP-62 NSCLC was 1.91 µM; in the test with SN12C renal, 2.25 µM; with MOLT-4 leukemia, 1.74 µM; in the test with SF-268 CNS it was 3.45 µM; with HT29 colon, 2.81 µM; with MALME-3M melanoma, 2.18 µM. The GI50 is 1.57 µM in the test with OVCAR-3 ovarian, 2.08 µM in the test on MCF7 breast and 1.87 µM in the test on RPMI-8226 leukemia. Also, the TGI in the test on HOP-62 NSCLC is 4.27 µM; in the test with SN12C renal, 6.07 µM; in the test with MOLT-4 leukemia, 6.57 µM; in the test on SF-268 CNS it was above 100 µM; in the test on HT29 colon, above 100 µM; in the test with MALME-3M melanoma it was 5.03 µM. For the same compound, the TGI in the test with OVCAR-3 ovarian was 3.12 µM; in the test with MCF7 breast it was above 100 µM; with RPMI-8226 leukemia, 5.95 µM.

As to `Cc1ccc(-c2csc3ncnc(Nc4cccc(O)c4)c23)cc1`, the GI50 is 21.8 µM in the test with HOP-62 NSCLC; 34.1 µM with SN12C renal; 41.6 µM in the test with MOLT-4 leukemia; above 100 µM in the test with SF-268 CNS; 39.7 µM in the test with HT29 colon; 15.2 µM in the test with SR leukemia. Also, the GI50 with OVCAR-3 ovarian was 22.3 µM; in the test with MCF7 breast, 41.6 µM; in the test with RPMI-8226 leukemia, 14.5 µM. Further, the TGI was 49.6 µM in the test with HOP-62 NSCLC; above 100 µM in the test with SN12C renal; above 100 µM in the test on MOLT-4 leukemia; above 100 µM in the test with SF-268 CNS; above 100 µM in the test with HT29 colon; 77.5 µM with SR leukemia. Moreover, the TGI with OVCAR-3 ovarian is 50.4 µM; in the test with MCF7 breast it was above 100 µM; in the test on RPMI-8226 leukemia, 37 µM.

`CN(C)Cc1nsc(N(C)C)n1`: the TGI with HOP-62 NSCLC, in the test with SN12C renal, in the test on SF-268 CNS, in the test with HT29 colon, in the test on MALME-3M melanoma and in the test on OVCAR-3 ovarian was above 100 µM each time. For the same compound, the TGI in the test on MCF7 breast and in the test on RPMI-8226 leukemia was above 100 µM each time.

In the case of `COc1ccc(/C(=N/O)c2cc(F)c(F)c(OC)c2F)cc1O`, the GI50 in the test with HOP-62 NSCLC was 0.502 µM; in the test with SN12C renal it was 0.832 µM; with MOLT-4 leukemia it was 0.43 µM; in the test with SF-268 CNS it was 0.839 µM; in the test on HT29 colon, 3.6 µM; in the test on SR leukemia, 0.241 µM. The GI50 in the test on OVCAR-3 ovarian is 0.345 µM; in the test on MCF7 breast, 0.329 µM; in the test on RPMI-8226 leukemia, 0.43 µM. For the same compound, the TGI in the test with HOP-62 NSCLC was above 100 µM; in the test on SN12C renal, above 100 µM; in the test on MOLT-4 leukemia, 30 µM; in the test with SF-268 CNS it was above 100 µM; in the test on HT29 colon, 65.4 µM; in the test on SR leukemia, 34.1 µM. The figures for the TGI in the test on OVCAR-3 ovarian, in the test on MCF7 breast and in the test on RPMI-8226 leukemia were 16.5 µM, above 100 µM and 23.7 µM, respectively.

Regarding `Cc1ncc2c(n1)CCC1=C2OS(=O)(=O)CC1N(C)C` (stereo not drawn), the TGI with HOP-62 NSCLC, with SN12C renal, in the test with MOLT-4 leukemia, in the test on SF-268 CNS, in the test with HT29 colon and in the test on SR leukemia was above 100 µM in each case. Also, the TGI in the test on OVCAR-3 ovarian, in the test on MCF7 breast and in the test with RPMI-8226 leukemia was above 100 µM throughout.

As to `O=C1c2ccccc2-n2c1nc1ccc([N+](=O)[O-])cc1c2=O`, the TGI in the test on HOP-62 NSCLC, in the test with SN12C renal, in the test with MOLT-4 leukemia, with SF-268 CNS, in the test on MALME-3M melanoma and in the test on SR leukemia was above 100 µM in each case. Also, the TGI came out at 99.7 µM in the test on OVCAR-3 ovarian, 24.4 µM in the test with MCF7 breast and 84.4 µM in the test on RPMI-8226 leukemia.

With `O=C(O)CC(CC(=O)O)n1cccc1`, the TGI in the test on HOP-62 NSCLC, in the test with SN12C renal, in the test on MOLT-4 leukemia, in the test on HT29 colon, in the test with SR leukemia and in the test with OVCAR-3 ovarian was above 100 µM each time. In addition, the TGI with MCF7 breast and in the test with RPMI-8226 leukemia was above 100 µM throughout.

For `Cc1nc2sc(C(=O)Nc3cccc4c3OCCO4)c(N)c2cc1C(C)O` (stereo not drawn), the GI50 is 5.35 µM with HOP-62 NSCLC; 5.65 µM in the test with SN12C renal; 4.97 µM in the test with MOLT-4 leukemia; above 100 µM in the test with SF-268 CNS; 2.62 µM in the test on HT29 colon; 1.18 µM with SR leukemia. Also, the GI50 is 3.6 µM in the test on OVCAR-3 ovarian, 2.11 µM in the test on MCF7 breast and 4.16 µM with RPMI-8226 leukemia. In addition, the TGI in the test with HOP-62 NSCLC, in the test on SN12C renal, with MOLT-4 leukemia, with SF-268 CNS, in the test on HT29 colon and in the test with SR leukemia was above 100 µM each time. For the same compound, the TGI with OVCAR-3 ovarian, in the test on MCF7 breast and with RPMI-8226 leukemia was above 100 µM in each case.
